Data: patent publication US9156824B2, “CDC7 inhibitors” (Eli Lilly and Company, priority 2013, dated 2015)
pIC50: −log10 of the molar value.

Assays:
[1] = system: phosphorylated MCM2 at Serine 53 (pMCM2-S53) in H1299 cells; test: Acumen imaging assay for detection of phosphorylated MCM2 in H1299 cells; type: cell-based; settings: 4 hours treatment, Hydrate, read-out: IC50, inhibition of pMCM2-S53
Protocol: The Acumen® eX3 is used to determine the effect of compounds on the formation of endogenous phosphorylated MCM2 at Serine 53 (pMCM2-S53). Phosphorylation of MCM2 by CDC7 is determined using specific anti-pMCM2-S53 antibody and quantified with fluorescent tagged secondary antibodies by Acumen® eX3 to monitor CDC7 activity in cells. Phosphorylation of MCM2 at Serine 53 is known to be correlated to CDC7 inhibition.
H1299 cells (ATCC #CRL-5803) are maintained in RPMI-1640 (Hyclone SH30809.01) growth medium supplemented with 10% FBS. Cells are harvested using standard cell culture procedures and then counted using Vi-Cell XR Cell Viability Analyzer (Beckman Counter). 3000-6000 H1299 cells in 100 μL of growth medium are plated into each well of Biocoat Poly-D-Lysine 96-well black/clear plate with flat bottom BioCoat™ Multiwell (Becton Dickinson) cell culture plates 356640 and incubated overnight at 37° C., 5% CO2.
Cells are treated with the test compound (50 μL/well) diluted in medium containing 0.6% DMSO and incubated for 4 hours at 37° C. To each well is added 7.4% formaldehyde (150 μL) diluted with PBS from 37% formaldehyde stock and the plates are incubated at room temperature for 30 minutes. Formaldehyde is removed and cold methanol (100 μL) is added. The plates are incubated for 20 minutes at 4° C. to permeabilize the cells. Plates are washed 3× with 100 μL/well of PBS. […] The plates are sealed with black seal and are read on the Acumen® eX3 (TTP LABTECH) using optical filter 500-530 nanometer and 575-640 nanometer for Alexa Fluor 488 and propidium iodide, respectively. The number of pMCM2-S53 positive cells is normalized to total cells for each well and are calculated as percent inhibition relative to on-plate controls. […]

CDC7/DBF4 = target: T1, CDC7/DBF4 (Homo sapiens, UniProt O00311); test: CDC7/DBF4 in vitro enzyme assay (Transcreener Kinase ADP-FP); type: biochemical; settings: ATP 5 μM, MCM2 400 nM, 60 minutes, read-out: IC50 against CDC7/DBF4 kinase
T1 construct: host or cells: insect cells
Protocol: The Transcreener™ Kinase ADP-FP assay is used to determine compound IC50 values against CDC7/DBF4 kinase. The Kinase ADP-FP assay assesses the activity of CDC7/DBF4 in the presence of compound inhibitors by measuring the concentration of ADP formed in a kinase reaction. The kinase reaction is performed using a 25 microliter reaction volume in 96 well assay plate. For the ADP-FP assay, the reagents are added to obtain the final reaction conditions of HEPES (25 mM) pH 7.5, 0.03% Triton® X-100, magnesium chloride (10 mM), DTT (1 mM), MCM2 (400 nM) (Amino Acid 1-209, a physiological substrate of CDC7/DBF4), spermine (4 mM), CDC7/DBF4 (2,640 ng/mL) (recombinant human CDC7/DBF4 expressed in insect cells), 4% dimethyl sulfoxide and serial dilutions of compound (diluted 1:3 from 20,000 nM to 1 nM). Enzyme and substrate is added to compound followed by ATP to 5 μM to start the reaction. The plates are incubated at room temperature for 60 minutes.
For the ADP-FP format add 25 microliters of a quench detection reagent containing HEPES (52 mM) pH 7.5, EDTA (20 mM), sodium chloride (0.4 M), polyoxyethyleneglycol dodecyl ether (0.02%) (BRIJ-35™), anti-ADP antibody (10 μg/mL), and ADP (4 nM) Transcreener® ADP Alexa Fluor® 633 tracer to quench the reaction. The plates are incubated for 1 hour, and then read in a Wallac EnVision™ 2104 Multilabel Reader (PerkinElmer) in Fluorescence Polarization mode using polarizing filters of Ex620nm and Em688nm wavelength. Millipolarization (mP) raw data is converted to micromolar ADP using a prepared ADP/ATP standard curve starting at 5 μM ADP 1:1 serial dilution in reaction buffer to 0.0025 μM ADP. The IC50 value for each compound is derived using percent inhibition data calculated from the μM ADP reaction data relative to on-plate controls (DMSO versus 100 mM EDTA inhibited enzyme controls). The percent inhibition and ten-point compound concentration data is then fitted to a four-parameter logistic equation.

T1 sequence (O00311 whole entry): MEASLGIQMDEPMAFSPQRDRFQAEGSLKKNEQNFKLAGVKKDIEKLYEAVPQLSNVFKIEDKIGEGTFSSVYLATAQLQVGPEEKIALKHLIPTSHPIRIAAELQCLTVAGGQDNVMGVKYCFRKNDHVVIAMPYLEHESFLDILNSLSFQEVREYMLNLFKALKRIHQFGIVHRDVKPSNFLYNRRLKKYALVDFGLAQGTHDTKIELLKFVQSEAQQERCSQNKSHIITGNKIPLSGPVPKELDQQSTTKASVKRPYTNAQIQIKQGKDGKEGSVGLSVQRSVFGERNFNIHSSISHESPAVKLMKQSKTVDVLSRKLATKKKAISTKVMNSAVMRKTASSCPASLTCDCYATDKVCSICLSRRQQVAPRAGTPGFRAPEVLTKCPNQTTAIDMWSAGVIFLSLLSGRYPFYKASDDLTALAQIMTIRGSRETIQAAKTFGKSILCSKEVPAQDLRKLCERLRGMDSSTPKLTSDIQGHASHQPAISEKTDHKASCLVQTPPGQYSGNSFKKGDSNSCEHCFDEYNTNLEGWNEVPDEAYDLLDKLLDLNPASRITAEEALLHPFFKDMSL
T1 sequence (Q9UBU7 whole entry partner): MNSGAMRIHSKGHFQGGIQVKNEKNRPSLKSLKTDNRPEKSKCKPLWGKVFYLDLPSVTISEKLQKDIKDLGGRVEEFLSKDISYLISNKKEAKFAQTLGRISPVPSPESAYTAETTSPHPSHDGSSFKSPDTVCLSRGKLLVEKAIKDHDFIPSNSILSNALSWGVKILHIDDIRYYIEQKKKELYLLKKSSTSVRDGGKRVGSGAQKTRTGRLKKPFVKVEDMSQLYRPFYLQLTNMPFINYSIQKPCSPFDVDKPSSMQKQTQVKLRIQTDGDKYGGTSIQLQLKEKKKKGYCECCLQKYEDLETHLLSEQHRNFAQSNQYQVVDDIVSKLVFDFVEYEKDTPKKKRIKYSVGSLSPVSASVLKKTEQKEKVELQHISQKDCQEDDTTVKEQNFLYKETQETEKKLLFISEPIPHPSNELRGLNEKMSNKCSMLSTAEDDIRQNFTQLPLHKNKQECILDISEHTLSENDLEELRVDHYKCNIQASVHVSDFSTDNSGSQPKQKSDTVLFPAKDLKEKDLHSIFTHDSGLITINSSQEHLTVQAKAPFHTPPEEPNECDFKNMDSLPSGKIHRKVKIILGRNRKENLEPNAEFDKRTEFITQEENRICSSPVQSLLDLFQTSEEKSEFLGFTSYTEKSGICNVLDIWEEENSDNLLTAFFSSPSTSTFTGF

For `CC1(c2ncncc2F)NC(=O)c2cc(-c3cn[nH]c3)ccc21` (single isomer, unassigned; isomer 2) [Example 4, 3-(5-Fluoropyrimidin-4-yl)-3-methyl-6-(1H-pyrazol-4-yl)isoindolin-1-one, Isomer 2, Hydrate], the pIC50 [1] was 6.54 and the pIC50 (CDC7/DBF4) was 8.48.
